Data as given in ChEMBL document CHEMBL1147915, “Carbonic anhydrase inhibitors. Inhibition of isoforms I, II, IV, VA, VII, IX, and XIV with sulfonamides incorporating fructopyranose-thioureido tails” (Bioorg Med Chem Lett, 2007).

Experiments:
[1] = target: Carbonic anhydrase 9 (Homo sapiens, UniProt Q16790)
Description: Inhibition of human recombinant CA9 after 15 mins by CO2 hydration stopped flow assay

[2] = tested on: Mus musculus; test: Anticonvulsant activity in OF1 mouse at 50 mg/kg, ip after 2 hrs by MES test; format: functional; conditions: route intraperitoneal
[3] = tested on: Mus musculus; test: Anticonvulsant activity in OF1 mouse at 30 mg/kg, ip after 2 hrs by MES test; format: functional; conditions: route intraperitoneal

SMILES | Ki [1] [nM] | Activity [2] [%] | Activity [3] [%]
NC(=O)N1c2ccccc2C=Cc2ccccc21 [CARBAMAZEPINE] | – | – | 100
CC1(C)O[C@@H]2[C@@H](CO[C@@]3(CNC(=S)NCCc4ccc(S(N)(=O)=O)cc4)OC(C)(C)O[C@@H]23)O1 | – | 0 | –
O=C1NC(=O)C(c2ccccc2)(c2ccccc2)N1 [PHENYTOIN] | – | – | 100
CC1(C)O[C@@H]2[C@@H](CO[C@@]3(COS(N)(=O)=O)OC(C)(C)O[C@@H]23)O1 [TOPIRAMATE] | – | 68.75 | –

Second part, led by results:

Ki [1] [nM] | SMILES | Activity [2] [%] | Activity [3] [%]
82 | CC1(C)O[C@@H]2[C@@H](CO[C@@]3(CNC(=S)Nc4ccc(S(N)(=O)=O)cc4)OC(C)(C)O[C@@H]23)O1 | 0 | –
4500 | CC1(C)O[C@@H]2[C@@H](CO[C@@]3(CNC(=S)Nc4cccc(S(N)(=O)=O)c4)OC(C)(C)O[C@@H]23)O1 | 0 | –
76 | CC1(C)O[C@@H]2[C@@H](CO[C@@]3(CNC(=S)Nc4ccc(S(=O)(=O)Nc5nnc(S(N)(=O)=O)s5)cc4F)OC(C)(C)O[C@@H]23)O1 | 0 | –
11 | CC1(C)O[C@@H]2[C@@H](CO[C@@]3(CNC(=S)Nc4ccc(S(=O)(=O)NCc5ccc(S(N)(=O)=O)cc5)cc4F)OC(C)(C)O[C@@H]23)O1 | 20 | –
110 | CC1(C)O[C@@H]2[C@@H](CO[C@@]3(CNC(=S)Nc4ccc(S(N)(=O)=O)cc4F)OC(C)(C)O[C@@H]23)O1 | 87.5 | –
134 | CC1(C)O[C@@H]2[C@@H](CO[C@@]3(CNC(=S)Nc4ccc(S(N)(=O)=O)cc4Cl)OC(C)(C)O[C@@H]23)O1 | 0 | –
